Experimental findings from ChEMBL document CHEMBL3351801, “Phragmalin-type limonoids with NF-κB inhibition from Chukrasia tabularis var. velutina” (Bioorg Med Chem Lett, 2014) are described below.

Assay type in all cases: cell-based
The target of experiment [1] is T1, Nuclear factor NF-kappa-B complex (Homo sapiens) (UniProt Q00653+P19838+Q04206). Description: Inhibition of LPS-induced NF-kappaB (unknown origin) expressed in HEK293 cells at 1 ug/ml after 4 hrs by luciferase reporter gene assay relative to LPS-treated control.
For experiment [2], the target named is T1, Nuclear factor NF-kappa-B complex (Homo sapiens). The experiment is described as follows: Inhibition of LPS-induced NF-kappaB (unknown origin) expressed in HEK293 cells at 10 ug/ml after 4 hrs by luciferase reporter gene assay relative to LPS-treated control. Background: A reporter such as luciferase makes a cellular process visible.
The target is the same in experiment [3]. The experiment is described as follows: Inhibition of LPS-induced NF-kappaB (unknown origin) expressed in HEK293 cells at 100 ug/ml after 4 hrs by luciferase reporter gene assay relative to LPS-treated control.

T1 sequence (P19838 whole entry, looked up): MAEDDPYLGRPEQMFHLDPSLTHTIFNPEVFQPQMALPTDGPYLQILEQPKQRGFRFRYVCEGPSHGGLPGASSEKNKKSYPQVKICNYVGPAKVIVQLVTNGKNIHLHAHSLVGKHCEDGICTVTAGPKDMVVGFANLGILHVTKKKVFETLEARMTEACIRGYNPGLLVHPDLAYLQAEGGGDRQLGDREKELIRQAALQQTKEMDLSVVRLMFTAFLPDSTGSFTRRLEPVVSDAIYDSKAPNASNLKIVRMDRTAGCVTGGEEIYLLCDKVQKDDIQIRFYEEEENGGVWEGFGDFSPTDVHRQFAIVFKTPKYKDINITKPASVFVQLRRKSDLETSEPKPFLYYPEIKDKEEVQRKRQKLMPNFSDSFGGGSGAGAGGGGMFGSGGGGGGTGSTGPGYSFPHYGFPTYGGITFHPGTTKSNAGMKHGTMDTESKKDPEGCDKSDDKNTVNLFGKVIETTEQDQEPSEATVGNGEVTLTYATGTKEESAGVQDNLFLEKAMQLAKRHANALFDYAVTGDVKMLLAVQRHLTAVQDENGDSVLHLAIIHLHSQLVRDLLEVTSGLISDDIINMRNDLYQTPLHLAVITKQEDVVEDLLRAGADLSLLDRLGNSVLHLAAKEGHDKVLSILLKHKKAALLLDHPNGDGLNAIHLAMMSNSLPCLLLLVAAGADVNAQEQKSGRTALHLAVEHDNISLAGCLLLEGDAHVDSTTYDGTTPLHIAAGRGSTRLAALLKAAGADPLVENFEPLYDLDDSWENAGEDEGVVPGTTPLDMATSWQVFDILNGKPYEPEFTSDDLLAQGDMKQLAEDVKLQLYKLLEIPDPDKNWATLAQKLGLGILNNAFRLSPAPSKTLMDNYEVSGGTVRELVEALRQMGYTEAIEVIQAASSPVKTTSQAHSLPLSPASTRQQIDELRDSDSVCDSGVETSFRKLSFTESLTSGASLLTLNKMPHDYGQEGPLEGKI
T1 sequence (Q00653 whole entry, looked up): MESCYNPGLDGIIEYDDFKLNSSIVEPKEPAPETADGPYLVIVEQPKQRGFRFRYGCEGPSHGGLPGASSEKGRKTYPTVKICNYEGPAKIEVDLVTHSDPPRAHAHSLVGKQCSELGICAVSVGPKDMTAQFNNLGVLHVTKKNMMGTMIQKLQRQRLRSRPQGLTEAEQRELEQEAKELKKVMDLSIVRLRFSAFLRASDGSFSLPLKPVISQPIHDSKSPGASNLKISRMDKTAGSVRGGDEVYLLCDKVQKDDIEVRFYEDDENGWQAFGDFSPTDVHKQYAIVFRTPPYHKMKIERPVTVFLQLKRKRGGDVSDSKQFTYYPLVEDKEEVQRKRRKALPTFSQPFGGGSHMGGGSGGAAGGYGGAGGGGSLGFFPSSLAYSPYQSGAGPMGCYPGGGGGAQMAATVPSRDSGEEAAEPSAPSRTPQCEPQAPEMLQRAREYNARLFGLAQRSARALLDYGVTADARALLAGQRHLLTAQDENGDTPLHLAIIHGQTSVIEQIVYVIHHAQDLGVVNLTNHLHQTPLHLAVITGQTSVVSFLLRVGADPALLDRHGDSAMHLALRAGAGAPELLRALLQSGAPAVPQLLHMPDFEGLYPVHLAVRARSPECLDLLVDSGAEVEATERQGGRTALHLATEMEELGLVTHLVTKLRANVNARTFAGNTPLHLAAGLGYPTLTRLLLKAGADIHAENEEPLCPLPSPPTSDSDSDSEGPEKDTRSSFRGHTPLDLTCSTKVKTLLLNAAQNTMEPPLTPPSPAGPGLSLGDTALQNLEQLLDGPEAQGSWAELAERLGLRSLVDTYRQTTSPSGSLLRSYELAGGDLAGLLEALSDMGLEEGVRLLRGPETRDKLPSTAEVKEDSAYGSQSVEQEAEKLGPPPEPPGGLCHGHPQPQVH
T1 sequence (Q04206 whole entry, looked up): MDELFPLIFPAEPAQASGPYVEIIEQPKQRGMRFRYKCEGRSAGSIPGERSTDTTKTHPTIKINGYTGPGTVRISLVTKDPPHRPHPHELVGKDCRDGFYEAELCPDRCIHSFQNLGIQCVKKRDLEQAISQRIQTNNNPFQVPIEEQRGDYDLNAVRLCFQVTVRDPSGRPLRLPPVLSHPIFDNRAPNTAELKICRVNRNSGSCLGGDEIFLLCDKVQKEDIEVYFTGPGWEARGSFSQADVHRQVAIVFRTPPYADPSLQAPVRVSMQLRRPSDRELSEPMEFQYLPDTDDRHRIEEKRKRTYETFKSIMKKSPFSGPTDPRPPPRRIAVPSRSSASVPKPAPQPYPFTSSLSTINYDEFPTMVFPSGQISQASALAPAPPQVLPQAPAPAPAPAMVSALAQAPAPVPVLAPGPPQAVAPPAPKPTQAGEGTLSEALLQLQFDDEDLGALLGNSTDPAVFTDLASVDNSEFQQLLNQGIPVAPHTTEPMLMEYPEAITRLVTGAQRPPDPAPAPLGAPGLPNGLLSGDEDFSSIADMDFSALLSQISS

Take `CC(=O)O[C@@H]1[C@H](OC(C)=O)[C@@](C)([C@@H](OC(C)=O)c2ccoc2)[C@H]2CC3(C)O[C@@H]4[C@@]5(OC(C)=O)[C@@H](OC(C)=O)[C@@]6(C)C[C@@]5(O)[C@]5(COC(=O)C[C@@H]65)[C@]1(O)[C@@]24O3`: the values for the Ratio in experiment [1], in experiment [2] and in experiment [3] were 0.25, 0.27 and 0.42, respectively.
For the compound `COC(=O)[C@H](OC(C)=O)[C@H]1[C@]2(C)C[C@]3(O)[C@@](O)([C@@H](OC(=O)C(C)C)[C@]45OC6(C)O[C@H]([C@H](O)[C@]78C[C@@]74[C@@H](OC(C)=O)C(=O)O[C@H]8c4ccoc4)[C@]5(O6)[C@]13C)[C@H]2OC(C)=O`, the Ratio in experiment [1] was 0.05; in experiment [2], 0.1; in experiment [3] it was 0.1.
For the compound `CCC12C[C@@H]3[C@](C)([C@@H](OC(C)=O)c4ccoc4)[C@@H](OC(C)=O)[C@@H](OC(C)=O)[C@@]4(O)[C@]3(O1)[C@H](O2)[C@@]1(OC(C)=O)[C@@H](OC(C)=O)[C@@]2(C)C[C@@]1(O)[C@@]4(COC(C)=O)[C@H]2CC(=O)OC`, the Ratio in experiment [1] amounted to 0.36; in experiment [2], 0.38; in experiment [3] it was 0.53.
With `COC(=O)[C@H](O)[C@H]1[C@]2(C)C[C@]3(O)[C@@](O)([C@H]4OC5(C)C[C@@H]6[C@](C)([C@@H](OC(C)=O)c7ccoc7)[C@@H](OC(C)=O)[C@@H](OC(C)=O)[C@@](O)([C@@]64O5)[C@]13C)[C@H]2O`, the values for the Ratio in experiment [1], in experiment [2] and in experiment [3] were 0.33, 0.2 and 0.56, respectively.
Take `CCC12C[C@@H]3[C@](C)([C@@H](OC(C)=O)c4ccoc4)[C@@H](OC(C)=O)[C@@H](OC(C)=O)[C@@]4(O)[C@]3(O1)[C@H](O2)[C@@]1(O)[C@@H](OC(C)=O)[C@@]2(C)C[C@@]1(O)[C@]41COC(=O)C[C@@H]21`: the results for the Ratio in experiment [1], in experiment [2] and in experiment [3] were 0.16, 0.26 and 0.31, respectively.
`CCC12C[C@@H]3[C@](C)([C@@H](OC(C)=O)c4ccoc4)[C@@H](OC(C)=O)[C@@H](OC(C)=O)[C@@]4(O)[C@]3(O1)[C@H](O2)[C@@]1(OC(C)=O)[C@@H](OC(C)=O)[C@@]2(C)C[C@@]1(O)[C@@]4(C)[C@H]2CC(=O)OC`: the Ratio came to 0.61 in experiment [1], 0.39 in experiment [2] and 0.75 in experiment [3].
The corresponding values for `COC(=O)[C@H](OC(C)=O)[C@H]1[C@]2(C)C[C@]3(O)[C@@](OC(=O)C(C)C)([C@H]4OC5(C)O[C@@]6([C@H](O)[C@H](O)[C@]78C[C@]7([C@@H](OC(C)=O)C(=O)O[C@H]8c7ccoc7)[C@@]46O5)[C@]13C)[C@H]2OC(C)=O` are 0.09, 0.32 and 0.44.
Regarding `COC(=O)C[C@H]1[C@]2(C)C[C@@]34OC5(C)O[C@]6([C@@H]7/C(=C(\C)O)C(=O)O[C@@H](c8ccoc8)[C@]7(C)[C@@H](OC(C)=O)[C@@H](O)[C@]6(O5)[C@]13COC(C)=O)[C@H](OC(C)=O)[C@@]4(OC(C)=O)[C@H]2OC(C)=O`, the values for the Ratio in experiment [1], in experiment [2] and in experiment [3] were 0.25, 0.33 and 0.62, respectively.
For `CC/C(O)=C1/C(=O)O[C@@H]2[C@@]3(O)[C@@H](OC(C)=O)[C@@]4(C)C[C@]35OC3(C)O[C@]26[C@H]1[C@](C)([C@@H](OC(C)=O)c1ccoc1)[C@@H](OC(=O)C(C)C)[C@@H](OC(=O)C(C)C)[C@]6(O3)[C@@]51COC(=O)C[C@@H]41` the same measures were 0.11, 0.18 and 0.29.
Regarding `COC(=O)[C@H](O)[C@H]1[C@]2(C)C[C@]3(O)[C@@](O)([C@@H](OC(=O)C(C)C)[C@]45OC6(C)O[C@H]([C@H](OC(C)=O)[C@]78C[C@@]74[C@@H](OC(C)=O)C(=O)O[C@H]8c4ccoc4)[C@]5(O6)[C@]13C)[C@H]2OC(C)=O`, the Ratio was determined as 0.22 in experiment [1], 0.15 in experiment [2] and 0.34 in experiment [3].
For `CCC12C[C@@H]3[C@](C)([C@@H](OC(C)=O)c4ccoc4)[C@@H](OC(C)=O)[C@@H](OC(C)=O)[C@@]4(O)[C@]3(O1)[C@H](O2)[C@@]1(O)[C@@H](OC(C)=O)[C@@]2(C)C[C@@]1(O)[C@@]4(C)[C@H]2CC(=O)OC`, the Ratio turned out to be 0.12 in experiment [1], 0.08 in experiment [2] and 0.17 in experiment [3].
With `C[C@]12CCC(=O)C=C1CC[C@@H]1[C@@H]2[C@@H](O)C[C@@]2(C)[C@H]1CC[C@]2(O)C(=O)CO`, the Ratio in experiment [1] was 0.29; in experiment [2], 0.37; in experiment [3] it was 0.6.
On to `COC(=O)[C@H](OC(C)=O)[C@H]1[C@]2(C)C[C@]3(O)[C@@](OC(=O)C(C)C)([C@H]4OC5(C)O[C@@]6([C@H](O)[C@H](OC(C)=O)[C@]78C[C@]7([C@@H](OC(C)=O)C(=O)O[C@H]8c7ccoc7)[C@@]46O5)[C@]13C)[C@H]2OC(C)=O`, for which the figures for the Ratio in experiment [1], in experiment [2] and in experiment [3] were 0.13, 0.05 and 0.24, respectively.
On to `COC(=O)C[C@H]1[C@]2(C)C[C@]3(O)[C@@](OC(C)=O)([C@H]4OC5(C)C[C@@H]6[C@](C)([C@@H](OC(C)=O)c7ccoc7)[C@@H](OC(C)=O)[C@@H](OC(C)=O)[C@@](O)([C@@]64O5)[C@]13COC(C)=O)[C@H]2OC(C)=O`, for which the Ratio in experiment [1] is 0.23; in experiment [2], 0.34; in experiment [3], 0.8.
As for `CC/C(O)=C1/C(=O)O[C@@H]2[C@@]3(OC(C)=O)[C@@H](OC(C)=O)[C@@]4(C)C[C@]35OC3(C)O[C@]26[C@H]1[C@](C)([C@@H](OC(C)=O)c1ccoc1)[C@@H](OC(C)=O)[C@@H](O)[C@]6(O3)[C@]5(COC(C)=O)[C@H]4CC(=O)OC`, the Ratio in experiment [1] was determined as 0.23; in experiment [2], 0.33; in experiment [3], 0.45.
On to `CC/C(O)=C1/C(=O)O[C@@H]2[C@@]3(O)[C@@H](OC(C)=O)[C@@]4(C)C[C@]35OC3(C)O[C@]26[C@H]1[C@](C)([C@@H](OC(C)=O)c1ccoc1)[C@@H](OC(C)=O)[C@@H](O)[C@]6(O3)[C@]5(COC(C)=O)[C@H]4CC(=O)OC`, for which the Ratio in experiment [1] was found to be 0.23; in experiment [2], 0.3; in experiment [3] it was 0.35.
As to `CCC12C[C@@H]3[C@](C)([C@@H](OC(C)=O)c4ccoc4)[C@@H](O)[C@@H](O)[C@@]4(O)[C@]3(O1)[C@H](O2)[C@@]1(OC(C)=O)[C@@H](OC(C)=O)[C@@]2(C)C[C@@]1(O)[C@]41COC(=O)C[C@@H]21`, the Ratio came to 0.33 in experiment [1], 0.48 in experiment [2] and 0.59 in experiment [3].
Turning to `CCC(=O)O[C@@H]1[C@@]2(O)[C@@H](OC(C)=O)[C@@]3(C)C[C@]24OC2(C)O[C@]15[C@@H]1CC(=O)O[C@@H](c6ccoc6)[C@]1(C)[C@@H](OC(C)=O)[C@@H](O)[C@]5(O2)[C@]4(COC(C)=O)[C@H]3CC(=O)OC`, the Ratio stood at 0.18 in experiment [1], 0.26 in experiment [2] and 0.32 in experiment [3].
For `CCC12C[C@@H]3[C@](C)([C@@H](OC(C)=O)c4ccoc4)[C@@H](O)[C@@H](OC(C)=O)[C@@]4(O)[C@]3(O1)[C@H](O2)[C@@]1(OC(C)=O)[C@@H](O)[C@@]2(C)C[C@@]1(O)[C@@]4(C)[C@H]2[C@@H](O)C(=O)OC` the same measures were 0.1, 0.23 and 0.3.
Regarding `COC(=O)[C@H](OC(C)=O)[C@H]1[C@]2(C)C[C@]3(O)[C@@](O)([C@H]4OC(=O)[C@@H]5O[C@@H](c6ccoc6)[C@@]67C[C@@]56[C@]4(O)[C@](O)([C@H](OC(=O)C(C)C)[C@@H]7OC(C)=O)[C@]13C)[C@H]2OC(C)=O`, the Ratio came out at 0.14 in experiment [1], 0.27 in experiment [2] and 0.3 in experiment [3].
As for `CC(=O)O[C@@H]1[C@H](OC(C)=O)[C@@](C)([C@@H](OC(C)=O)c2ccoc2)[C@H]2CC3(C(C)C)O[C@@H]4[C@@]5(OC(C)=O)[C@@H](OC(C)=O)[C@@]6(C)C[C@@]5(O)[C@]5(COC(=O)C[C@@H]65)[C@]1(O)[C@@]24O3`, the Ratio in experiment [1] was determined as 0.17; in experiment [2], 0.25; in experiment [3], 0.3.
As for `COC(=O)[C@H](OC(C)=O)[C@H]1[C@]2(C)C[C@]3(O)[C@@](O)([C@@H](OC(=O)C(C)C)[C@]45OC6(C)O[C@H]([C@H](OC(C)=O)[C@]78C[C@@]74[C@@H](OC(C)=O)C(=O)O[C@H]8c4ccoc4)[C@]5(O6)[C@]13C)[C@H]2OC(C)=O`, the Ratio is 0.37 in experiment [1], 0.55 in experiment [2] and 0.62 in experiment [3].
Regarding `CCC12C[C@@H]3[C@](C)([C@@H](OC(C)=O)c4ccoc4)[C@@H](OC(C)=O)[C@@H](OC(C)=O)[C@@]4(O)[C@]3(O1)[C@H](O2)[C@@]1(OC(C)=O)[C@@H](OC(C)=O)[C@@]2(C)C[C@@]1(O)[C@]41COC(=O)C[C@@H]21`, the Ratio in experiment [1] came out at 0.09; in experiment [2], 0.34; in experiment [3], 0.31.
With `COC(=O)C[C@H]1[C@]2(C)C[C@]3(O)[C@@](O)([C@@H](OC(=O)C(C)C)[C@]45OC6(C)O[C@H]([C@H](OC(C)=O)[C@]78C[C@@]74[C@@H](OC(C)=O)C(=O)O[C@H]8c4ccoc4)[C@]5(O6)[C@]13C)[C@H]2OC(C)=O`, the Ratio in experiment [1] was determined as 0.12; in experiment [2] it was 0.32; in experiment [3], 0.35.
On to `COC(=O)C[C@H]1[C@]2(C)C[C@]3(O)[C@@](O)([C@@H](OC(=O)C(C)C)[C@]45OC6(C)O[C@H]([C@H](O)[C@]78C[C@@]74[C@@H](OC(C)=O)C(=O)O[C@H]8c4ccoc4)[C@]5(O6)[C@]13C)[C@H]2OC(C)=O`, for which the Ratio is 0.1 in experiment [1], 0.1 in experiment [2] and 0.17 in experiment [3].
Regarding `CC/C(O)=C1/C(=O)O[C@@H]2[C@@]3(O)[C@@H](OC(C)=O)[C@@]4(C)C[C@]35OC3(C)O[C@]26[C@H]1[C@](C)([C@@H](OC(C)=O)c1ccoc1)[C@@H](OC(C)=O)[C@@H](OC(C)=O)[C@]6(O3)[C@]5(COC(C)=O)[C@H]4CC(=O)OC`, the Ratio in experiment [1] turned out to be 0.13; in experiment [2], 0.27; in experiment [3], 0.45.
